Assay results reported in the NIST ThermoML archive (doi:10.1016/j.jct.2015.09.031).

Assay: molar heat capacity at constant pressure
Conditions: Liquid, Flow calorimetry

CCOC(=O)/C=C/c1ccccc1 [ethyl trans-3-phenylpropenoate]
Conditions | molar heat capacity at constant pressure [J/K/mol]
306.7 K, 100 kPa | 299.7
306.7 K, 3970 kPa | 297.7
306.8 K, 7840 kPa | 297.2
306.9 K, 11640 kPa | 295.5
307.1 K, 15780 kPa | 294.4
315.8 K, 100 kPa | 302.2
315.8 K, 4120 kPa | 301.9
315.9 K, 8120 kPa | 300.4
316 K, 11870 kPa | 299.4
316.1 K, 15790 kPa | 297.4
325.2 K, 100 kPa | 307.1
325.5 K, 3970 kPa | 304.6
325.6 K, 8000 kPa | 303
325.8 K, 11720 kPa | 301.8
325.8 K, 16030 kPa | 301
334.6 K, 100 kPa | 311.1
334.8 K, 3970 kPa | 309.5
334.9 K, 8070 kPa | 308
335 K, 11750 kPa | 306.6
335.1 K, 16080 kPa | 303.6
345.1 K, 100 kPa | 315.3
345.2 K, 3910 kPa | 313.4
345.3 K, 7970 kPa | 312
345.4 K, 11840 kPa | 310.1
345.6 K, 15760 kPa | 308.2
355.3 K, 11990 kPa | 313.5
355.5 K, 16020 kPa | 312.1
355.6 K, 100 kPa | 320.2
355.7 K, 3930 kPa | 316.6
355.8 K, 7990 kPa | 315.4
366 K, 100 kPa | 324.5
366.3 K, 4210 kPa | 321.3
366.5 K, 8030 kPa | 319.6
366.6 K, 12140 kPa | 318.6
366.9 K, 16090 kPa | 316.8
375.6 K, 100 kPa | 328.3
375.8 K, 4120 kPa | 326
375.9 K, 8030 kPa | 323.8
376.2 K, 12180 kPa | 321.6
376.4 K, 16170 kPa | 320.4
385.6 K, 100 kPa | 332.5
385.9 K, 4170 kPa | 330.4
386.1 K, 8090 kPa | 329.1
386.3 K, 12160 kPa | 327.2
386.5 K, 16040 kPa | 325.7

CCCCCCC(=O)OCC [ethyl heptanoate]
Conditions | molar heat capacity at constant pressure [J/K/mol]
305.4 K, 100 kPa | 318.3
305.4 K, 4040 kPa | 317.7
305.4 K, 8190 kPa | 317.3
305.4 K, 12090 kPa | 316.8
305.5 K, 16070 kPa | 316.4
315.7 K, 100 kPa | 322.5
315.8 K, 4190 kPa | 322
315.9 K, 8150 kPa | 321.6
315.9 K, 12260 kPa | 320.5
316 K, 16160 kPa | 319.6
326.2 K, 16030 kPa | 323.6
326.5 K, 100 kPa | 326.8
326.5 K, 4140 kPa | 325.9
326.6 K, 8170 kPa | 325.2
326.6 K, 12110 kPa | 324.3
335.3 K, 100 kPa | 330.3
335.3 K, 4060 kPa | 330.1
335.4 K, 8050 kPa | 328.6
335.4 K, 12030 kPa | 327.6
335.5 K, 16070 kPa | 326.9
345.1 K, 100 kPa | 334.2
345.2 K, 4070 kPa | 333.5
345.6 K, 8230 kPa | 332.5
345.7 K, 12160 kPa | 332.2
345.7 K, 16230 kPa | 330.5
354.2 K, 100 kPa | 337.8
354.2 K, 4120 kPa | 337.3
354.3 K, 8010 kPa | 336.5
354.4 K, 12390 kPa | 335.6
354.5 K, 16250 kPa | 334.5
364.9 K, 100 kPa | 342.1
365.3 K, 3870 kPa | 341.3
365.6 K, 8320 kPa | 340.3
365.7 K, 12160 kPa | 339.5
365.8 K, 15950 kPa | 338.3
374.8 K, 100 kPa | 346.1
375 K, 3980 kPa | 345.5
375.5 K, 8020 kPa | 344
375.7 K, 12070 kPa | 342.6
375.9 K, 16040 kPa | 341.4
384 K, 100 kPa | 349.8
385 K, 4020 kPa | 349.1
385.4 K, 8040 kPa | 347.1
385.5 K, 11880 kPa | 346.1
385.7 K, 15890 kPa | 345.6
